The values below come from ChEMBL document CHEMBL5528064, “Invention of MK-7845, a SARS-CoV-2 3CL Protease Inhibitor Employing a Novel Difluorinated Glutamine Mimic” (J Med Chem, 2024).

Data set [1] deals with Cytochrome P450 2C9 (Homo sapiens, UniProt P11712). The experiment in a line: Reversible inhibition of CYP2C9 in human liver microsomes using diclofenac as substrate incubated for 5 mins in presence of NADPH-generating system by LC-MS/MS analysis. It counts as ADME, Microsome.
The target in data set [2] is T1, Cytochrome P450 2B6 (Homo sapiens, UniProt P20813).
T1 sequence (P20813 whole entry): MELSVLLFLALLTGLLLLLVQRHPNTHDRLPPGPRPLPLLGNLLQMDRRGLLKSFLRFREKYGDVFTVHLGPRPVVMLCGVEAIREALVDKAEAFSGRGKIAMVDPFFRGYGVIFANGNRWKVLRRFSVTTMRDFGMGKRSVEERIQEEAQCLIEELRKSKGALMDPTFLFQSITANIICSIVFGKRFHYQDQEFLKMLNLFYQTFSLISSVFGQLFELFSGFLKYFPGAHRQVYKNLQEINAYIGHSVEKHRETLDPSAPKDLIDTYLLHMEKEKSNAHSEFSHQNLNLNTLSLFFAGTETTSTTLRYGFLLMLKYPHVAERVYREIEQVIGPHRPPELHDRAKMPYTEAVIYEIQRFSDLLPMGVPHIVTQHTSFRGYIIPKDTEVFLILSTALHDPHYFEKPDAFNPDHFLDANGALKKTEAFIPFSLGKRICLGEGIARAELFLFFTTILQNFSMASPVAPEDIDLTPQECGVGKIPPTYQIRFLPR
In words: Reversible inhibition of CYP2B6 in human liver microsomes using bupropion as substrate incubated for 5 mins in presence of NADPH-generating system by LC-MS/MS analysis. Type of data set: ADME, Microsome.

A short description of data set [3]: Plasma stability in human assessed as epimerization at 1 uM measured upto 3 hrs by LC-MS/MS analysis. It counts as ADME, cell-free.
The nature of data set [4]: Plasma stability in rhesus monkey assessed as epimerization. Type of data set: ADME, cell-free, Macaca mulatta.
A short description of data set [5]: Plasma protein binding in dog assessed as unbound fraction at 1 uM. Type of data set: ADME, cell-free, Canis lupus familiaris.
Data set [6] can be described thus: Volume of distribution at steady state in dog by measuring compound and its epimer at 3 mg/kg, po or 1 mg/kg, iv measured upto 24 hrs by LC-MS analysis. Type of data set: ADME, organism-based, Canis lupus familiaris. The settings on record: in vivo.
Data set [7] addresses T2, Cytochrome P450 1A2 (Homo sapiens, UniProt P05177).
T2 sequence (P05177 whole entry): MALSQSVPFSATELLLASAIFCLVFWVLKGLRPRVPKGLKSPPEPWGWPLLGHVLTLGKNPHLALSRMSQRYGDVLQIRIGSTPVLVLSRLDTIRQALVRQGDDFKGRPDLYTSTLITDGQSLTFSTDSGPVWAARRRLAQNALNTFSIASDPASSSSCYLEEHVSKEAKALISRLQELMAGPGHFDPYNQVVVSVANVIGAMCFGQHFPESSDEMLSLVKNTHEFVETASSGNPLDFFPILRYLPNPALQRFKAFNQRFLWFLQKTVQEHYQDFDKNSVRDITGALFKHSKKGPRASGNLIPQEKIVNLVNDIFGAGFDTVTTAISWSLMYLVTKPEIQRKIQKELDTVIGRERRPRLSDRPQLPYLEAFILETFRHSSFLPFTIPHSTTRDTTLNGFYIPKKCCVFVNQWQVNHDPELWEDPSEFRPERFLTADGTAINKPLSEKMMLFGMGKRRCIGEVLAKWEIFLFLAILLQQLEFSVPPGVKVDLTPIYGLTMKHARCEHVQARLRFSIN
In words: Induction of CYP1A2 in human hepatocytes assessed as increase in CYP1A2 mRNA level at 20 uM measured after 48 hrs by PCR analysis relative to control. Type of data set: ADME, cell-based, Hepatocyte.

Data set [8] has as its system SARS-CoV-2. In words: Antiviral activity against SARS CoV-2 USA-WA1/2020 infected in B6.Cg-Tg(K18-ACE2)2Prlmn/J mouse assessed as protection against body weight loss at 100 to 500 mg/kg, po bid measured daily for 4 days post inoculation. It counts as functional, organism-based. The settings on record: Severe acute respiratory syndrome coronavirus 2, dose 100-500 mg/kg, time 4.0 day.

In data set [9] the target is T2, Cytochrome P450 1A2. The experiment in a line: Reversible inhibition of CYP1A2 in human liver microsomes using phenacetin as substrate incubated for 5 mins in presence of NADPH-generating system by LC-MS/MS analysis. It counts as ADME, Microsome.
Data set [10] deals with T3, Cytochrome P450 2C8 (Homo sapiens, UniProt P10632).
T3 sequence (P10632 whole entry): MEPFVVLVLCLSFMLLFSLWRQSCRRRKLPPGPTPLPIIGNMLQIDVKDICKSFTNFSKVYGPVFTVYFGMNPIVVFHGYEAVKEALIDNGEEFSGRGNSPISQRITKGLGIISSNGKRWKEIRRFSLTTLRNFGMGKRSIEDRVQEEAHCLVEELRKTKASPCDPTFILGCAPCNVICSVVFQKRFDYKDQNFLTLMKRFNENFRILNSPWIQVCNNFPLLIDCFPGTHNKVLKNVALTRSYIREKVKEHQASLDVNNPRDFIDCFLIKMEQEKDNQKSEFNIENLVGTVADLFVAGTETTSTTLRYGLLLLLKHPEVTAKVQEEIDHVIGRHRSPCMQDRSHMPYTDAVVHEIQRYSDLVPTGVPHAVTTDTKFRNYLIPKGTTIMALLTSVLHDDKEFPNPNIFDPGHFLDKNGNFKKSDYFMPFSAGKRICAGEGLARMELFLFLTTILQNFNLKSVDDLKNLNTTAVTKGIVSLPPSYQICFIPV
The experiment in a line: Reversible inhibition of CYP2C8 in human liver microsomes using amodiaquine as substrate incubated for 5 mins in presence of NADPH-generating system by LC-MS/MS analysis. Type of data set: ADME, Microsome.

Data set [11] is described as follows: Aqueous solubility of compound. It counts as physicochemical. The settings on record: buffer.
Data set [12] is described as follows: Plasma protein binding in monkey assessed as unbound fraction at 1 uM. Type of data set: ADME, cell-free, Macaca mulatta. Conditions: rhesus monkey.
The target in data set [13] is T4, PXR (nuclear receptor subfamily 1 group I member 2) (Homo sapiens, UniProt O75469).
T4 sequence (O75469 whole entry): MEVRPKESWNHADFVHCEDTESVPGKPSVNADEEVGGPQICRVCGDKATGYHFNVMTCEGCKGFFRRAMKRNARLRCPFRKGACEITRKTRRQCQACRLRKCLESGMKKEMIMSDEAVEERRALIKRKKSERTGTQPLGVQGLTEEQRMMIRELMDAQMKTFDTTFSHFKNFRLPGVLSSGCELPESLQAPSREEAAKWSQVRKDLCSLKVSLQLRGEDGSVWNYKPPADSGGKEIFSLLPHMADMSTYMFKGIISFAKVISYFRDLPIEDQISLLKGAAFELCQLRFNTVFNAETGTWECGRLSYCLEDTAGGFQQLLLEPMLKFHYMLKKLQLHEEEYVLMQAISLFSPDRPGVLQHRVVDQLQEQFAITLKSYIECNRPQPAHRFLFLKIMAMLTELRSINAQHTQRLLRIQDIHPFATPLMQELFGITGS
In words: Activation of PXR (unknown origin) assessed as maximal activation at 30 uM relative to control. It counts as toxicity. The settings on record: read-out: Activity.

Each structure is given as a SMILES string. ≈ marks a conversion by molar mass, not a printed value. Calls of active or inactive are those of the source. The rule behind the calls is not given here.

Cytochrome P450 2C9, sequence (P11712 whole entry): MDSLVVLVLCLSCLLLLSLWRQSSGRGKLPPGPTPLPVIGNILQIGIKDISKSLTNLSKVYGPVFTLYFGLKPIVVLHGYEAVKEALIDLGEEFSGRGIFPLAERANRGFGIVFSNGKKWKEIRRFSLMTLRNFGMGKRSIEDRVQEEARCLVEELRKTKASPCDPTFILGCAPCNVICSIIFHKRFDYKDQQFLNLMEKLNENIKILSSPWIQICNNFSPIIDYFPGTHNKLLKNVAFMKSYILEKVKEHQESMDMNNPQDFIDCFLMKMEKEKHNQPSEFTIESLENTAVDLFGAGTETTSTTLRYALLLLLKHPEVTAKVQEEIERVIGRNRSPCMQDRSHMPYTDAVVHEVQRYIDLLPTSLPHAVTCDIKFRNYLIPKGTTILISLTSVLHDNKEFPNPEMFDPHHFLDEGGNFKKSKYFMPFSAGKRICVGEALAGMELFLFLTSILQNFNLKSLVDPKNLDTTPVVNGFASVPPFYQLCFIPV

As for `CNC(=O)C(=O)[C@H](CCC(C)(F)F)NC(=O)[C@@H]1[C@H]2CCC[C@H]2CN1C(=O)[C@@H](NC(=O)OC)C(C)(C)C`, the IC50 in data set [1] was > 200 µM; in data set [2], 159 µM; in data set [9], > 200 µM; in data set [10] it was > 200 µM. Further, the Stability entry in data set [3] and in data set [4] was “Unstable” each time. The fraction unbound at 1 µM in [5] was found to be 0.09; in [12], 0.5. The Vdss in [6] was found to be 0.4 L/kg. The Activity in [7] is on record as < 1%. Moreover, in data set [8], the result was Active. In [11], this compound had a solubility of 4500 µg/mL (≈ 8.71 mM). Moreover, the Emax at 30 µM in [13] was 29%.
